Test system: gastric mucosa
Test: test of pylorus ligature in rats (ulcerating index, inhibition of FANS-induced gastric lesions)
Type: in vivo, Charles River Wistar rats
Settings: p.o., pylorus-ligated rats, 6 hours
Experimental: Several compositions containing sucralfate : FANS in weight ratios comprised within the range of from 1: 4 to 8 : 1 have been tested on rats by means of the test of pylorus ligature according to the technique Linda J. et al., J. Pharmac., 1978, 30, 244 - 246 "Inhibitors of Gastric Lesions in the Rat".
The testing has been carried out on Charles River Wis tar rats of 230 - 270 g of weight and in the number of 8 rats per each group. The rats, fasting from 15 hours, have been submitted to etheric anesthesia and then to the liga ture of the pylorus. The rats have been treated, immediate ly after the recovery, by means of gastric probe, with the FANS alone, with the FANS in the sucralfate-FANS form with sequential action according to the present invention, and by means of the administering of sucralfate first, and then, after a 10 minutes interval, of FANS.
The single active principles have been administered as aqueous suspension in sodium-CMC at 0.5% p.o.
Six hours later than the intervention, the rats have been sacrificed and the stomach, after having been withdrawn, has been cut along the line of the greater curvature. The stomach, after having been slightly washed with bidistilled water has been spread out and mounted on a support for the'evaluation of induced ulceration. The alterations detected on the gastric mucosa have been quantified on the basis of their type and largeness, with a value ranging from 0 to 1 (ulcerating index, UI), according to the following empirical scale: • 0 = mucose not damaged (control submitted to surgical handling and to placebo) • 0.25 = diffused accentuated hyperemia • 0.50 = diffused erosion • 0.75 = diffused hemorrhagic ulceration • 1 = diffused hemorrhagic ulceration with perforation and damaging of the whole gastric mucosa.
The activity of the form of sucralfate and FANS with sequential action according to the invention has been expressed as percentage inhibition of the lesion relatively to that observed in the control group as treated with the ligature of pylorus and administering of FANS only, and com pared to that obtained from the contemporary administering of sucralfate and FANS. The ID 50 (Inhibiting Dosis 50) was computated by the probit method.

Question: What does the source list for “3,4,5,6-tetra-(polyhydroxyalumino)-n-D-glu· copyranosyl sulphate - 2,3,4,5-tetra-(polyhydroxyalumino)-B-D-fructofuranoside sulphate [sucralfate]”?
Answer: Inhibiting Dosis 50 of sucralfate for the ulcerogenic activity of some FANS (Administering of the sucralfate-FANS form with sequential action, FANS: Diclofenac Na (50 mg/kg)): 96.6 mg; Inhibiting Dosis 50 of sucralfate for the ulcerogenic activity of some FANS (Administering of the sucralfate-FANS form with sequential action, FANS: Indomethacin (100 mg/kg)): 97 mg; Inhibiting Dosis 50 of sucralfate for the ulcerogenic activity of some FANS (Administering of the sucralfate-FANS form with sequential action, FANS: Sodium indoprofen betainate (200 mg/kg as indoprofen)): 85.6 mg; Inhibiting Dosis 50 of sucralfate for the ulcerogenic activity of some FANS (Contemporary administering of sucralfate and of FANS, FANS: Diclofenac Na (50 mg/kg)): 157 mg; Inhibiting Dosis 50 of sucralfate for the ulcerogenic activity of some FANS (Contemporary administering of sucralfate and of FANS, FANS: Indomethacin (100 mg/kg)): 204 mg; Inhibiting Dosis 50 of sucralfate for the ulcerogenic activity of some FANS (Contemporary administering of sucralfate and of FANS, FANS: Sodium indoprofen betainate (200 mg/kg as indoprofen)): 206 mg

Source: patent EP0167958A2, “Oral solid pharmaceutical form with sequential action for the administering of drugs with ulcerogenic side effect” (LABORATORIO ITALIANO BIOCHIMICO FARMACEUTICO LISAPHARMA …, priority 1984, dated 1986)
